“Also recorded” adds a separate entry of the source. Like-named read-outs stand apart in the source and are kept apart here.
Experiments:
[1] = biological target: recombinant human KEAP1 protein (Homo sapiens (Human), UniProt Q14145); test: SPR (Surface Plasmon Resonance) Biacore binding assay
Protocol: Briefly, compound MIND4-17 and MIND4 binding to baculovirous expressed KEAP1 by Surface Plasmon Resonance (SPR) binding Biacore assay was performed by CRO Precision Antibody, Inc. Binding experiments were performed on Biacore T-200 at 25° C. using CM5 chip. Anti-GST tag antibody was immobilized by amine coupling. The ligand KEAP1 was captured until 800 RU was reached. Antigen was flowed over the chip at variable concentrations. Binding of analyte to the ligand was monitored in real time to obtain on (ka) and off (kd) rates. The equilibrium constant (KD) was calculated from the observed ka and kd. In pilot experiment the analytes MIND4 and MIND4-17 were flowed over the chip at 3 different concentrations as indicated and kinetic analysis was performed. Full kinetic analysis was performed for MIND4-17 using analyte concentrations of 140 μM (the saturating amount) and run at serial dilutions 70, 35, 17.5, 8.75, 4.375 and 0. Chi square (χ^2) analysis was carried out between the actual Sensorgram (colored line) and the sensorgram generated from the BIAnalysis software (black line) to determine the accuracy of the analysis. (χ^2) value within 2-1 is considered significant (accurate) and below 1 is highly significant (highly accurate). The flow rate used for capturing the ligand was […] and the flow rate for kinetics analysis was […]. The Biacore binding assay was performed using assay buffer: 10 mM HEPES buffer (pH 7.4), 150 mM NaCl, 3 mM EDTA, 0.005% P20 (polyoxyethylenesorbitan), 5% DMSO; regeneration buffer: 10 mM HEPES buffer (pH 7.4), 150 mM NaCl, 3 mM EDTA, 0.005% P20 (polyoxyethylenesorbitan), 5% DMSO; and conjugation buffer: 10 mM sodium acetate buffer (pH 4.5).

BV2 microglia cells = test: Transcriptional expression profiling in LPS-induced microglia BV2 cells (qRT-PCR); assay type: cell-based, mouse
Protocol: To further validate the NRF2 activating properties of MIND4, effects of the compound on repression of inflammatory responses were tested in LPS-induced BV2 microglia cells, a model in which the influence of NRF2 signaling on inflammation has been well established (Koh et al., 2011). A BV2 mouse microglia cell line was maintained in DMEM media supplemented with 10% FBS (Sigma) and antibiotic-antimycotic mix. Cells were seeded into 12 well plates at the density of 3×10^5 cells/well. Cells were treated with the indicated concentrations of MIND4, MIND4-17, and MIND4A compounds for 24 hr. Cells were then stimulated with 10 ng/ml LPS (E. coli) for 2 hr. Total RNA was isolated using ZR Miniprep kit (Zymo Research). 1 μg of total RNA was used to prepare cDNA. Gene expression was analyzed using VeriQuest SYBR green assay in Roche480 thermocycler. The sequences of gene-specific primers for qPCR were as follows: […]
Immortalized bone marrow derived mouse macrophages (iBMMs) and BV2 mouse microglia cell line were used in the present study. Both cell types were maintained in DMEM media supplemented with 10% FBS and antibiotic-antimycotic mix. Cells were seeded into 12 well plates at the density of 3×10^5 cells/well. Cells were treated with the indicated concentrations of MIND4-17 compounds for 24 hr. Cells were then stimulated with 10 ng/ml LPS (E. coli, Sigma) for 2 hr. Total RNA was isolated using ZR Miniprep kit (Zymo Research). […] of total RNA was used to prepare cDNA. Gene expression was analyzed using VeriQuest SYBR green assay (Affymetrix) in Roche480 thermocycler. Primer sequences are as described above (see Example 9).

[2] = test system: NRF2-responsive proteins NQO1 and GCLM; test: Induction of NQO1 and GCLM proteins in differentiated ST14A cells (immunoblotting); assay type: cell-based, rat; details: differentiated HD mutant and wild type ST14A cells, 24 hours
Protocol: To assess protein levels, cell extracts were prepared from cells washed with PBS and lysed with buffer containing 2% SDS, Complete EDTA-free Protease Inhibitor Cocktail (Roche) and 1 mM phenylmethylsulfonyl fluoride. To prepare brain extracts for analysis, frozen mouse cortical tissues were homogenized in PBS containing protease inhibitors with an Kontes Pellet Pestle (Kimble/Kontes). They were later sonicated and lysed overnight at 4° C. in 2× volume of lysis buffer containing 2% SDS and protease inhibitors. Protein concentrations in ST14A cell extracts and homogenized cortical tissues were evaluated using a BCA analysis kit and normalized. Samples were prepared in a SDS buffer containing DTT and separated on bis-acrylamide protein gels via electrophoresis and transferred onto a 0.2 μm PVDF membrane). Membranes were probed for NQO1 (Sigma N5288, 1:1,000), GCLM, (Abcam ab126704, 1:800), SIRT2 (Sigma S8447, 1:2,500), histone H3 (Cell Signaling 4499, 1:2,000), acetylated H3 (K56) (Millipore 04-1135, 1:500), TNFα (Abcam ab1793, 1:1,500), GADPH (Millipore MAB374, 1:10,000), actin (Sigma A2066, 1:1250), α-tubulin (Sigma T6074, 1:20,000), and acetylated α-tubulin (Sigma T6793, 1:2,500) overnight in 5% milk in PBST at 4° C. on a rocker. Membranes were thrice washed in PBST for 15 min on a shaker and incubated in either an anti-rabbit-HRP (Bio-Rad 170-5046, 1:10,000) or anti-mouse-HRP (Sigma A3682, 1:4,000) secondary solution as appropriate in 3% milk in PBST for 1 hr at room temperature on a rocker. After four washes of 15 min in PBST on a shaker, blots were visualized using SuperSignal West Pico Chemiluminescent Substrate (Pierce 34080) or SuperSignal West Dura Extended Duration Substrate (Thermo 34075) and exposed on Scientific Imaging Film (Kodak 864 6770).
Compound bioactivity was tested in the rat embryonic striatal cell lines ST14A, which stably express either a mutant expanded repeat (128Q) or wild type (26Q) 546 amino acid huntingtin (HTT) fragment (a generous gift of E. Cattaneo) (Ehrlich et al., 2001) ST14A cells were propagated at 33° C. in the presence of serum. To induce neuronal differentiation, cells were serum deprived and cultured at 37° C. in the presence of N2 supplement. Cells were treated with compounds concurrently with induction of neuronal differentiation for 24 hours, as described (Quinti et al., 2010).
The NRF2 activation properties of further MIND4 structural analogs with variable potencies of SIRT2 inhibition were tested as described previously (see Table 1) Changes in expression of the canonical NRF2-responsive proteins NQO1 and GCLM, the transcription of which was induced by MIND4, was selected as a readout of pathway activation. Protein levels of NQO1 and GCLM were examined by immunoblotting in compound treated mutant HD and wild-type ST14A cells. […] This hypothesis was tested using a second panel of MIND4 analogs (see Table 3).

[3] = BV2 cells, dose-dependent, 24 hr

recombinant human KEAP1 protein, sequence (Q14145 whole entry): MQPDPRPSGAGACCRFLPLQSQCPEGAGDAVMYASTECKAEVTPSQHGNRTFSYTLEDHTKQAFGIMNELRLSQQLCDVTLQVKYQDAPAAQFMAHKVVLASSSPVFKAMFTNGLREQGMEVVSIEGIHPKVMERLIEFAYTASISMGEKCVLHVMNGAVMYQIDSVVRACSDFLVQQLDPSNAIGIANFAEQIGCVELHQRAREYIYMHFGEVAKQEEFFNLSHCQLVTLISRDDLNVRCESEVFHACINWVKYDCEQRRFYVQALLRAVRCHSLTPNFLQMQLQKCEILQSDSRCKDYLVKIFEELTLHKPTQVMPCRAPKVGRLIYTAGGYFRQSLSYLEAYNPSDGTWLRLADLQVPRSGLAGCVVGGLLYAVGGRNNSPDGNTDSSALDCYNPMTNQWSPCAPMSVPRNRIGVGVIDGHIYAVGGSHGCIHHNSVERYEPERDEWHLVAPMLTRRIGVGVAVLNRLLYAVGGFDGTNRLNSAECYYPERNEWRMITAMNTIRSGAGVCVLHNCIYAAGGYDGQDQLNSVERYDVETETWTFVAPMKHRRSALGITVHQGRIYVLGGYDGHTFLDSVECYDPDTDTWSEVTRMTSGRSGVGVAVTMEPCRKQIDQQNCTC

## O=[N+]([O-])c1ccc(Sc2nnc(COc3ccccc3)n2-c2ccccc2)c2ncccc12 [MIND4, 5-nitro-8-{[5-(phenoxymethyl)-4-phenyl-4H-1,2,4-triazol-3-yl]thio}quinoline]
[1]
  Kd: 22.8 µM
  Mode of binding to KEAP1: reversible binding
[1]; 25° C., kinetic analysis
  Kd: 22.8 µM
BV2 microglia cells; 3 μM 24 hr pre-treatment, LPS-activated BV2 cells
  TNFα and IL-6 gene expression: correspondingly reduced
BV2 microglia cells; 3 μM 24 hr pre-treatment, basal and LPS-induced BV2 cells
  IL-1β and MCP-1 transcription: repression of both basal and LPS-induced transcription
[2]
  Induction of NRF2-responsive proteins NQO1 and GCLM: induced dose-dependent increases of NQO1 and GCLM protein

## O=[N+]([O-])c1ccc(Sc2nnc(COc3ccccc3)n2-c2ccccc2)nc1 [MIND4-17]
[1]
  Kd: 16.5 µM
  Mode of binding to KEAP1: reversible binding
[1]; 25° C., kinetic analysis
  Kd: 16.5 µM
BV2 microglia cells; [3]
  Expression of inflammatory factors TNFα, IL-6, IL-1β and MCP-1: repressed transcriptional expression of inflammatory factors
  Transcription of GCLM and NQO1: increased transcription of the canonical NRF2 target genes GCLM and NQO1
[2]
  Induction of NRF2-responsive proteins NQO1 and GCLM: potently induces NRF2-responses; also recorded: dose-dependent induction of NQO1 protein
